Test systems include ACHN renal; HOP-62 NSCLC; K-562 leukemia; KM12 colon; LOX IMVI melanoma; OVCAR-4 ovarian; OVCAR-5 ovarian; RPMI-8226 leukemia; UACC-62 melanoma; MALME-3M melanoma.
What all share (assay): inhibition of tumour cell growth, NCI panel, 48 h

Several values for one entry are separate records, joined by “and”; a condition that tells them apart may be missing. Identical values can stand only once.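 Growth conditions: 96-well plates. Treatment: test compound, 48 hours, 5 concentrations. Analysis: linear interpolation between bracketing concentrations; unreached endpoints set to highest concentration. Abbreviation: GI50, concentration required for 50% inhibition of growth. TGI is the concentration that stops growth completely.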

Among the data in PubChem BioAssay (NCI) are GI50 and TGI values, retold here.

As to `COc1ccc(N2CCN(CN3CCN(c4ccc(OC)cc4)C3)C2)cc1`, the GI50 was 33500 nM in the assay on ACHN renal; 81500 nM in the assay with HOP-62 NSCLC; 27800 nM in the assay on K-562 leukemia; > 100000 nM in the assay with KM12 colon; 41300 nM with LOX IMVI melanoma; > 100000 nM in the assay with OVCAR-4 ovarian. The GI50 in the assay with OVCAR-5 ovarian is > 100000 nM; in the assay with RPMI-8226 leukemia, 32600 nM; with UACC-62 melanoma it was > 100000 nM. Besides, the TGI was 96.9 µM in the assay with ACHN renal; > 100 µM in the assay with HOP-62 NSCLC; 52700 nM with K-562 leukemia; > 100 µM in the assay on KM12 colon; > 100000 nM with LOX IMVI melanoma; > 100000 nM with OVCAR-4 ovarian. The TGI in the assay with OVCAR-5 ovarian, with RPMI-8226 leukemia and in the assay on UACC-62 melanoma was > 100 µM in each case.

In the case of `COC1=C(C)C(=O)C2=C(C1=O)C(CO)N1C(C#N)C3CC4C(C1C2N1CCOC41)N3C` (centres undefined), the GI50 was 2.77 nM in the assay on ACHN renal; 5.57 nM in the assay with HOP-62 NSCLC; 6.27 nM and < 10 nM in the assay on K-562 leukemia; 4.3 nM and 30.5 nM in the assay on KM12 colon; 2.04 nM in the assay on LOX IMVI melanoma; 128 nM and 40.9 nM and 51.6 nM with OVCAR-4 ovarian. Moreover, the GI50 with RPMI-8226 leukemia was 17.7 nM. The TGI was 3.54 µM and 10.6 µM in the assay with ACHN renal; 0.973 µM and 0.902 µM and 3.34 µM in the assay on HOP-62 NSCLC; 547 nM and 68.2 nM and 123 nM in the assay on K-562 leukemia; 728 nM and 218 nM and 332 nM in the assay on OVCAR-4 ovarian; 1.09 µM and 0.587 µM and 1.98 µM in the assay on OVCAR-5 ovarian.

As to `COc1cc(-c2nc(-c3nnc(-c4ccc(F)c(Cl)c4)o3)c3ccccn23)cc(OC)c1OC`, the GI50 was 2190 nM in the assay with HOP-62 NSCLC; 4340 nM in the assay with K-562 leukemia; 3830 nM in the assay with LOX IMVI melanoma; 4570 nM with OVCAR-5 ovarian; 1790 nM with RPMI-8226 leukemia. For the same compound, the TGI in the assay on HOP-62 NSCLC is 4.57 µM; with K-562 leukemia, > 100000 nM; in the assay on LOX IMVI melanoma, > 100000 nM; with OVCAR-5 ovarian, > 100 µM; in the assay with RPMI-8226 leukemia, 5.65 µM.

As for `CN(C)C(=S)/N=c1\ssc(=S)n1-c1ccccc1`, the TGI was determined as 32.1 µM in the assay with ACHN renal; 74.2 µM in the assay with HOP-62 NSCLC; 42600 nM with K-562 leukemia; 22.7 µM in the assay with KM12 colon; 31000 nM with MALME-3M melanoma; 29400 nM in the assay with OVCAR-4 ovarian. Moreover, the TGI in the assay on OVCAR-5 ovarian was 29.9 µM; with UACC-62 melanoma it was 30.6 µM.

Consider `CN(C)CCNC(=O)c1cccc2cc([N+](=O)[O-])ccc12`, for which the GI50 in the assay on ACHN renal is 384 nM and 127 nM; in the assay with HOP-62 NSCLC it was 1190 nM and 224 nM; in the assay with K-562 leukemia it was 579 nM and 123 nM; in the assay with LOX IMVI melanoma, 566 nM and 129 nM; in the assay with MALME-3M melanoma, 1330 nM and 179 nM; with OVCAR-4 ovarian, 2100 nM and 311 nM. For the same compound, the TGI is 2.94 µM and 0.604 µM with ACHN renal; 4.13 µM and 1.23 µM in the assay on HOP-62 NSCLC; 2750 nM and 621 nM in the assay with MALME-3M melanoma; 5.47 µM and 0.87 µM with OVCAR-5 ovarian; 2.29 µM and 0.705 µM in the assay with RPMI-8226 leukemia.

Turning to `O=C(O)c1c([N+](=O)[O-])cc(C(F)(F)F)cc1[N+](=O)[O-]`, the TGI was > 100 µM in the assay with ACHN renal; > 100 µM in the assay on HOP-62 NSCLC; > 100000 nM with K-562 leukemia; > 100 µM in the assay on KM12 colon; > 100000 nM in the assay with LOX IMVI melanoma; > 100000 nM in the assay with OVCAR-4 ovarian. Besides, the TGI in the assay with OVCAR-5 ovarian and in the assay with RPMI-8226 leukemia was > 100 µM in each case.

Consider `COc1ccc2nc3ccccc3c(NCCCCCN(CCCl)CCCl)c2c1`, for which the TGI with ACHN renal is 0.748 µM; in the assay with HOP-62 NSCLC it was 0.525 µM; in the assay on K-562 leukemia, 502 nM; in the assay on KM12 colon it was 2.14 µM; with LOX IMVI melanoma, 376 nM; with OVCAR-4 ovarian it was 771 nM. Moreover, the TGI with OVCAR-5 ovarian turned out to be 1.35 µM; in the assay on RPMI-8226 leukemia, 0.206 µM; in the assay on UACC-62 melanoma, 1.8 µM.

Take `CC(C)(C)CC(C)(C)N(CSc1ccc(Cl)cc1)CSc1ccc(Cl)cc1`: the GI50 in the assay with ACHN renal was 2560 nM; in the assay with HOP-62 NSCLC it was 570 nM; in the assay with K-562 leukemia it was 3490 nM; with KM12 colon it was 486 nM; in the assay on LOX IMVI melanoma, 337 nM; in the assay with OVCAR-4 ovarian it was 1740 nM. In addition, the GI50 in the assay on OVCAR-5 ovarian is 2190 nM; in the assay with RPMI-8226 leukemia, 2170 nM; with UACC-62 melanoma, 1720 nM. The TGI in the assay with ACHN renal amounted to 11.4 µM; with HOP-62 NSCLC, 10.8 µM; in the assay on K-562 leukemia, 26000 nM; with KM12 colon it was 4.55 µM; with LOX IMVI melanoma, 1060 nM; in the assay on OVCAR-4 ovarian, 9880 nM. In addition, the figures for the TGI with OVCAR-5 ovarian, with RPMI-8226 leukemia and in the assay on UACC-62 melanoma were 6.26 µM, 5.11 µM and 3.77 µM, respectively.

Consider `COc1ccc2[nH]c3c(C)c4cc[n+](C)cc4c(C)c3c2c1`, for which the GI50 was 4040 nM with ACHN renal; 311 nM and 240 nM in the assay with HOP-62 NSCLC; 2 µM [middle of 4 runs] in the assay with K-562 leukemia; 340 nM and 817 nM in the assay with KM12 colon; 3980 nM and 3320 nM with LOX IMVI melanoma; 624 nM and 2380 nM in the assay on MALME-3M melanoma. The GI50 in the assay with OVCAR-4 ovarian is 2180 nM; in the assay with OVCAR-5 ovarian it was 2320 nM and 3070 nM; in the assay with UACC-62 melanoma, 1280 nM and 7390 nM. The TGI in the assay on ACHN renal is > 85.3 µM; with HOP-62 NSCLC it was 2.24 µM [middle of 4 runs]; with LOX IMVI melanoma, 37 µM [middle of 4 runs]; in the assay with OVCAR-4 ovarian it was 15.9 µM [middle of 4 runs].

Take `COc1ccc2c(c1)C(=O)c1c-2c(OCCN(C)C)nc2cc(OC)ccc12`: the GI50 is 532 nM in the assay on ACHN renal; 2020 nM in the assay with HOP-62 NSCLC; 1060 nM in the assay with K-562 leukemia; 759 nM in the assay on KM12 colon; 751 nM in the assay on LOX IMVI melanoma; 1060 nM in the assay on OVCAR-4 ovarian. Besides, the values for the GI50 in the assay with OVCAR-5 ovarian, in the assay on RPMI-8226 leukemia and in the assay with UACC-62 melanoma were 1900 nM, 1710 nM and 2120 nM, respectively. The TGI in the assay with ACHN renal worked out at 1.9 µM; in the assay with HOP-62 NSCLC it was 8.04 µM; in the assay with K-562 leukemia it was 2820 nM; with KM12 colon it was 2.14 µM; in the assay on LOX IMVI melanoma, 2070 nM; with OVCAR-4 ovarian, 2900 nM. The TGI in the assay on OVCAR-5 ovarian turned out to be 4.65 µM; in the assay on RPMI-8226 leukemia, 5.09 µM; in the assay with UACC-62 melanoma it was 8.51 µM.

Regarding `O=C(c1ccco1)c1ccccc1C(=O)c1ccco1`, the TGI in the assay on ACHN renal is > 100 µM; with HOP-62 NSCLC, > 100 µM; in the assay with K-562 leukemia it was > 100000 nM; in the assay with KM12 colon, > 100 µM; in the assay with LOX IMVI melanoma it was > 100000 nM; in the assay on MALME-3M melanoma it was > 100000 nM. Besides, the values for the TGI in the assay on OVCAR-4 ovarian, in the assay on OVCAR-5 ovarian and in the assay on UACC-62 melanoma were > 100000 nM, > 100 µM and > 100 µM, respectively.
